What all share (experiment): NCI-60 cell line screen, 48 h
The subject of assay [1] is SK-MEL-28 melanoma.
In assay [2] the test system is HT29 colon.
For assay [3], the system named is UACC-62 melanoma.
The test system of assay [4] is EKVX NSCLC.
Assay [5] concerns NCI-H460 lung.
In assay [6] the test system is ACHN renal.
In assay [7] the test system is SF-295 CNS.
Assay [8] relates to OVCAR-5 ovarian.
The subject of assay [9] is DU-145 prostate.
The test system of assay [10] is HOP-62 NSCLC.
Assay [11] concerns TK-10 renal.
Assay [12] deals with HCC-2998 colon.
The subject of assay [13] is A498 renal.
For assay [14], the system named is MDA-MB-231 breast.

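Following 48 hours of exposure in 96-well plates, responses at five concentrations were used to interpolate endpoints linearly. GI50 is the concentration that inhibits growth by half. TGI: total growth inhibition.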

In the case of `CCOC(=O)C1=C(c2ccccc2)C12N(Cc1ccccc1)C(=O)C2(c1ccccc1)c1ccccc1` (centres undefined), the TGI in [1], in assay [2], in assay [3], in [4], in assay [5] and in assay [6] was > 100 µM in each case. In addition, the TGI in assay [7] was > 100 µM; in [8], > 100 µM; in [9], > 100 µM; in assay [10] it was > 100 µM; in assay [11] it was > 100 µM; in assay [12], 90.3 µM. The TGI in [13] is 90.9 µM; in assay [14], > 100 µM.
Regarding `O=C1c2cc3c(cc2CC1Cc1ccc2c(c1)CCC2)CCC3` (centres undefined), the TGI in assay [1], in assay [2], in assay [3], in [4], in assay [5] and in assay [6] was > 100 µM each time. The TGI in assay [7], in [8], in assay [9], in assay [10], in assay [11] and in assay [12] was > 100 µM throughout. Also, the TGI in assay [13] and in assay [14] was > 100 µM in each case.
As for `COc1cc(-c2nc3cc(Cl)c(Cl)cc3[nH]2)ccc1OCC(=O)N=Nc1c(O)[nH]c2ccc(Cl)cc12`, the GI50 is 1.2 µM in [3]; 1.7 µM in assay [4]; 1.69 µM in assay [6]; 0.455 µM in assay [10]; 2.53 µM in assay [11]; 0.538 µM in [14]. Besides, the TGI in assay [3] is 2.54 µM; in assay [4], > 100 µM; in assay [6], > 100 µM; in assay [10], 1.98 µM; in assay [11], > 100 µM; in assay [14], 1.95 µM.
For `N#Cc1ccc(C2Oc3ccc(Cl)cc3C=C2[N+](=O)[O-])cc1` (centres undefined), the TGI in [1] was found to be 3.31 µM; in assay [2], 7.89 µM; in assay [3], 3.09 µM; in [4] it was 3.42 µM; in [5], 5.18 µM; in assay [6], 3.06 µM. Also, the TGI worked out at 9.15 µM in [7]; 3.98 µM in assay [8]; 6.07 µM in [9]; 3.8 µM in assay [10]; 3.38 µM in assay [11]; 3.21 µM in assay [12]. The TGI in [13] is 6.31 µM; in assay [14], 3.63 µM.

The values above are taken from PubChem BioAssay (NCI).
